Measurements taken from the supplement of paper PMC10307832.

Assays:
Assay in all cases: relative viability (nuclei count vs DMSO), 5 days (fraction); higher = more cells survive
[1] = compound: Cc1ccc2nc(NCCN)c3ncc(C)n3c2c1 + O=C(c1cc(Cc2n[nH]c(=O)c3ccccc23)ccc1F)N1CCN(C(=O)C2CC2)CC1 [Olaparib] (partner 8 µM)
Summary of the method: (§1)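 Lung cancer cell lines, seeded in 1536-well plates, were treated the following day by pin tool with a single drug or with five library-drug doses (not always all listed) in √10 steps on top of a fixed anchor-drug dose. Cells were fixed and nuclei stained in one step after 5 days, and nuclei were counted. Relative viability is the nuclei count for treated wells divided by that for vehicle wells, reported as medians of duplicate plates.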

[2] = compound: Cc1ccc2nc(NCCN)c3ncc(C)n3c2c1 + CS(=O)(=O)CCNCc1ccc(-c2ccc3ncnc(Nc4ccc(OCc5cccc(F)c5)c(Cl)c4)c3c2)o1 [Lapatinib] (partner 2 µM)
Summary of the method: as §1

[3] = compound: Cc1ccc2nc(NCCN)c3ncc(C)n3c2c1 + Cc1cc(Nc2cc(N3CCN(C)CC3)nc(Sc3ccc(NC(=O)C4CC4)cc3)n2)n[nH]1 [Tozasertib] (partner 0.1 µM)
Summary of the method: as §1

[4] = compound: Cc1ccc2nc(NCCN)c3ncc(C)n3c2c1 + CC(C)C[C@H](NC(=O)[C@H](Cc1ccccc1)NC(=O)c1cnccn1)B(O)O [Bortezomib] (partner 0.002 µM)
Summary of the method: as §1

| Cell Line | relative viability ([1]; first compound 0.04 µM) | relative viability ([1]; first compound 0.1265 µM) | relative viability ([1]; first compound 0.4 µM) | relative viability ([1]; first compound 1.265 µM) | relative viability ([1]; first compound 4 µM) | relative viability ([2]; first compound 0.04 µM) | relative viability ([2]; first compound 0.1265 µM) | relative viability ([2]; first compound 0.4 µM) | relative viability ([2]; first compound 1.265 µM) | relative viability ([2]; first compound 4 µM) | relative viability ([3]; first compound 0.04 µM) | relative viability ([3]; first compound 0.1265 µM) | relative viability ([3]; first compound 0.4 µM) | relative viability ([3]; first compound 1.265 µM) | relative viability ([3]; first compound 4 µM) | relative viability ([4]; first compound 0.04 µM) | relative viability ([4]; first compound 0.1265 µM) | relative viability ([4]; first compound 0.4 µM) | relative viability ([4]; first compound 1.265 µM) | relative viability ([4]; first compound 4 µM) |
| --- | --- | --- | --- | --- | --- | --- | --- | --- | --- | --- | --- | --- | --- | --- | --- | --- | --- | --- | --- | --- |
| NCI-H2023 | 0.503 | 0.56 | 0.541 | 0.458 | 0.254 | 0.949 | 0.884 | 0.651 | 1.26 | 0.69 | 0.333 | 0.395 | 0.361 | 0.32 | 0.251 | 1.17 | 1.01 | 0.938 | 1.16 | 0.858 |
| NCI-H23 | 0.37 | 0.324 | 0.319 | 0.276 | 0.242 | 1.09 | 1.12 | 1.19 | 1.15 | 0.937 | 0.707 | 0.403 | 0.451 | 0.301 | 0.422 | 1.12 | 1.03 | 1.08 | 1.02 | 0.672 |
| NCI-H520 | 0.308 | 0.368 | 0.323 | 0.304 | 0.266 | 0.964 | 0.853 | 0.866 | 0.837 | 0.729 | 0.476 | 0.458 | 0.371 | 0.424 | 0.405 | 0.656 | 0.544 | 0.464 | 0.568 | 0.36 |
| NCI-H460 | 0.481 | 0.421 | 0.443 | 0.342 | 0.273 | 0.999 | 1 | 0.886 | 0.898 | 0.745 | 0.453 | 0.481 | 0.603 | 0.312 | 0.386 | 1.05 | 1.02 | 1.08 | 1.08 | 1.01 |
| EKVX | 0.941 | 0.82 | 0.775 | 0.706 | 0.737 | 0.232 | 0.197 | 0.216 | 0.283 | 0.213 | 0.433 | 0.359 | 0.366 | 0.349 | 0.407 | 0.998 | 0.994 | 0.996 | 1.17 | 0.951 |
| EPLC-272H | 0.869 | 0.814 | 0.98 | 0.686 | 0.778 | 1.04 | 0.981 | 0.777 | 0.829 | 0.977 | 0.249 | 0.33 | 0.348 | 0.237 | 0.251 | 0.914 | 0.782 | 0.911 | 0.805 | 0.97 |
| NCI-H2126 | 0.924 | 0.903 | 0.943 | 0.932 | 0.888 | 0.793 | 0.783 | 0.765 | 0.791 | 0.593 | 0.955 | 0.857 | 0.869 | 0.852 | 0.734 | 1.15 | 1.1 | 1.18 | 1.16 | 1.13 |
| LXF-289 | 1.16 | 1.02 | 1.03 | 1.13 | 1.1 | 0.956 | 0.882 | 0.894 | 0.873 | 0.902 | 0.186 | 0.192 | 0.163 | 0.178 | 0.212 | 1.01 | 0.97 | 0.987 | 0.984 | 0.994 |
